Columns and labels:
Assay type in all cases: cell-based
C. albicans [1] = assay: Method C, oil/water base incubated at 30° C. (Examples 7 and 8); details: 10^7 cfu/gm, 24 hours
Experimental: Evaluation of the effect of various preservative compositions incorporated in an oil/water base against C. albicans (yeast) incubated at 30° C. Yeast and fungi grow optimally at 30° C. and therefore the efficacy of the preservative was evaluated at this temperature.
Method of evaluation: Method C: Same as Method B except that incubation was at 30° C. and subculturing is done on Sabouraud agar.
The following preservatives at 1.0% and 0.5% concentrations were added to the cream. C. albicais at 10^7 cfu/gm base was added to the base and incubated at 30° C. for 24 hours.
Efficacy of preservatives incorporated in the oil/water base and inoculated with the yeast C. albicans and fungus Aspergillus niger.
The cream base and the cream containing the preservatives were inoculated with 10^7 cfu of C. albicans/gm and 105 cfu of Aspergillus niger/gm; and incubated at 30° C. for 24 hours and 48 hours.
Method of Evaluation: Testing was done using Method C.

C. albicans [2] = assay: Method B, Symrise oil/water cream base (Examples 5 and 6); details: for Colony counts (CFU/gm) C. albicans: 0.2% w/w in Symrise oil/water cream, 10^7 CFU/gm
Experimental: Activity of lower concentration of Symdiol™ (0.2% w/w) with organic acids was measured. The cream base used in this study was supplied by Symrise Corporation. This base is an oil/water base. […] Method of evaluation: Method B was used for this test. Method B: Same as described in Method A except a higher inoculum was used. […] Microbial growth measured as CFU was counted after 24 hour incubation at 37° C. The cream base used in this study was supplied by Symrise Corporation. This base is an oil/water base. […] Method of evaluation: Method B was used for this test with C. albicans as test organism.

E. coli [3] = assay: Preservative activity in cream base, Method A (Example 3); details: 10^5 cfu inoculum, room temperature, 24 hours
Experimental: (§1) Method of evaluation—Method A: 500 μl or 250 μl of each of the following preservatives was added to 49.5/49.75 gm of the cream base to obtain the desired concentrations for testing as in Table 3, and mixed well. 1.0 gm of this base+preservative formulation was dispensed into several culture tubes and each tube was inoculated with 10 μl of culture containing 10^5 cfu (colony forming units) of test organism. The tubes were incubated at room temperature. After 24 hours the tubes were removed and 9 ml of drug inactivating medium was added and mixed. After making another dilution (1:10) with drug inactivating medium, a 0.5 ml aliquot was subcultured on to a TSA plate. Colony counts were measured after 24 hours incubation at 37° C.
(§2) Result: Preservative activity of various creams utilizing a concentration of test organism of 10^5 cfu/gm and incubation at room temperature is shown in Table 4.

C. albicans [4] = assay: as above; details: 10^5 cfu inoculum, room temperature, 24 hours
Experimental: as §1, §2

S. aureus [5] = assay: as above; details: 10^5 cfu inoculum, room temperature, 24 hours
Experimental: as §1, §2

P. aeruginosa [6] = assay: Efficacy of preservatives against higher concentrations of P. aeruginosa (Example 4); details: 10^7 cfu per gm cream, 37° C.
Experimental: as §1
(§3) Evaluation of the synergistic activity of octanediol and AHA combinations against higher concentrations of P. aeruginosa. Since 0.5% Octanediol kills 100% of P. aeruginosa at a concentration of 10^5 cfu/gm, the test was repeated with this organism at 10^7 cfu/gm.
Method of evaluation: Same as described in Method A except a higher inoculum was used. A 100 μl inoculum containing 10^7 cfu of P. aeruginosa was added to each 1 gm of cream and incubated at 37° C.

E. coli [7] = assay: Method B, Symrise oil/water cream base (Example 5); details: 0.2% w/w in Symrise oil/water cream; 10^7 CFU/gm; 37° C., 24 hour
Experimental: (§4) Activity of lower concentration of Symdiol™ (0.2% w/w) with organic acids was measured. The cream base used in this study was supplied by Symrise Corporation. This base is an oil/water base.
(§5) Method of evaluation: Method B was used for this test. Method B: Same as described in Method A except a higher inoculum was used. A 100 μL inoculum containing 10^7 CFU of test organism was added to each 1 gm of cream and incubated at 37° C. Microbial growth measured as CFU was counted after 24 hour incubation at 37° C.

P. aeruginosa [8] = assay: Method B, Symrise oil/water cream base (Example 5); details: 0.2% w/w in Symrise oil/water cream; 10^7 CFU/gm; 37° C., 24 hour
Experimental: as §4, §5

S. aureus [9] = assay: Method B, Symrise oil/water cream base (Example 5); details: 0.2% w/w in Symrise oil/water cream; 10^7 CFU/gm; 37° C., 24 hour
Experimental: as §4, §5

P. aeruginosa [10] = assay: Preservative activity in cream, Method A inoculum (text of Example 4); details: 0.5% Octanediol; organism at 10^5 cfu/gm (so in the source)
Experimental: as §1, §3

[11] = printed as 20% (single ingredient)

O=C(O)CC(O)(CC(=O)O)C(=O)O [Citric acid]
C. albicans (CFU/gm cream) (C. albicans [1]; [11]): 2.5 × 10^6 CFU/gm cream | Colony counts (CFU/gm) C. albicans (C. albicans [2]; 37° C., 24 hour): 2.0 × 10^6 CFU/gm | Colony counts (CFU/gm) C. albicans (C. albicans [2]; Table 7, Method B): 2.0 × 10^6 CFU/gm | activity of the combination against C. albicans in words (conclusion of Example 6) (C. albicans [2]; with a lower concentration of octanediol (0.2% w/w)): enhanced activity | Colony counts (CFU)/gm E. coli (E. coli [3]; 0.2% w/w in cream): 7.3 × 10^4 CFU/gm | Colony counts (CFU/gm) C. albicans (C. albicans [4]; 0.2% w/w in cream): 1.0 × 10^5 CFU/gm | Colony counts (CFU)/gm S. aureus (S. aureus [5]; 0.2% w/w in cream): 5.0 × 10^4 CFU/gm | Colony counts (CFU/gm) P. aeruginosa (P. aeruginosa [6]; 0.2% w/w in cream): 2.5 × 10^6 CFU/gm | Colony counts (CFU)/gm E. coli (E. coli [7]): 2.0 × 10^6 CFU/gm | Colony counts (CFU/gm) P. aeruginosa (P. aeruginosa [8]): 1.0 × 10^6 CFU/gm | Colony counts (CFU)/gm S. aureus (S. aureus [9]): 2.0 × 10^4 CFU/gm

CCCCCCC(O)CO (stereo not drawn)
C. albicans (CFU/gm cream) (C. albicans [1]; printed as 30% (single ingredient)): 1.4 × 10^5 CFU/gm cream | C. albicans (CFU/gm cream) (C. albicans [1]; printed as 50% (single ingredient)): 0 CFU/gm cream | Colony counts (CFU/gm) C. albicans (C. albicans [2]; Table 7, Method B): 1.0 × 10^5 CFU/gm | Colony counts (CFU)/gm E. coli (E. coli [3]; 0.3% w/w in cream): 5.4 × 10^4 CFU/gm | Colony counts (CFU)/gm E. coli (E. coli [3]; 0.5% w/w in cream): 0 CFU/gm | Colony counts (CFU/gm) C. albicans (C. albicans [4]; 0.3% w/w in cream): 2.0 × 10^5 CFU/gm | Colony counts (CFU/gm) C. albicans (C. albicans [4]; 0.5% w/w in cream): 5.2 × 10^2 CFU/gm | Colony counts (CFU)/gm S. aureus (S. aureus [5]; 0.3% w/w in cream): 4.0 × 10^4 CFU/gm | Colony counts (CFU)/gm S. aureus (S. aureus [5]; 0.5% w/w in cream): 1.5 × 10^3 CFU/gm | Colony counts (CFU/gm) P. aeruginosa (P. aeruginosa [6]; 0.5% w/w in cream): 1.6 × 10^3 CFU/gm | kills P. aeruginosa (P. aeruginosa [10]): 100%

CC(O)C(=O)O (stereo not drawn) [Lactic acid]
C. albicans (CFU/gm cream) (C. albicans [1]; 0.12% (single ingredient)): 4.2 × 10^6 CFU/gm cream | C. albicans (CFU/gm cream) (C. albicans [1]; [11]): 5 × 10^6 CFU/gm cream | Colony counts (CFU/gm) C. albicans (C. albicans [2]; 37° C., 24 hour): 2.0 × 10^6 CFU/gm | Colony counts (CFU/gm) C. albicans (C. albicans [2]; Table 7, Method B): 2.0 × 10^6 CFU/gm | Colony counts (CFU)/gm E. coli (E. coli [3]; 0.2% w/w in cream): 2.3 × 10^4 CFU/gm | Colony counts (CFU/gm) C. albicans (C. albicans [4]; 0.2% w/w in cream): 1.5 × 10^4 CFU/gm | Colony counts (CFU)/gm S. aureus (S. aureus [5]; 0.2% w/w in cream): 3.0 × 10^3 CFU/gm | Colony counts (CFU/gm) P. aeruginosa (P. aeruginosa [6]; 0.2% w/w in cream): 2.0 × 10^6 CFU/gm | Colony counts (CFU)/gm E. coli (E. coli [7]): 1.2 × 10^6 CFU/gm | Colony counts (CFU/gm) P. aeruginosa (P. aeruginosa [8]): 2.0 × 10^6 CFU/gm | Colony counts (CFU)/gm S. aureus (S. aureus [9]): 6.0 × 10^4 CFU/gm

— patent US20080311231A1, “Broad Spectrum Non-Traditional Preservative System” (priority 2005, published 2008)
